From US7078065B2, “Composition containing asiasari radix extracts for protecting brain cells and improving memory” (priority 2001, dated 2006)

Assays:
[1] = system: AMPA-induced depolarization in rat cortical slices; experiment: Grease-gap recording assay: AMPA-induced depolarization in rat cortical wedges; conditions: AMPA 40 uM for 2 min
Experimental: Cortical wedges from rats were prepared, placed in two-compartment brain bath and experiments were performed as described by Harrison and Simmonds (British J. Pharmacol. 84, 381–391, 1985). ‘Wedges’ of rat cerebral cortex were prepared from the brains of male Wistar rats (200 g). The animal is decapitated and the brain rapidly removed into chilled oxygenated (95% O2/5% CO2) artificial cerebrospinal fluid (ACSF) containing (mM): NaCl 122, NaHCO3 25, KCl 3.1, KH2PO4 0.4, CaCl2 1.3, MgSO4 1.4, D-glucose 10, (pH 7.4). […] coronal slices were taken and they were then placed in room temperature oxygenated ACSF and hemisected with a razor blade. A wedge of tissue was formed such that the dorsal cortical surface containing cerebral cortex and corpus callosum was approximately 1.5 mm wide and ventral surface was approximately 1 mm wide. The wedges were further incubated in ACSF for 2 hrs at room temperature.
Cortical wedges were placed in a two-compartment bath and a greased (high vacuum silicon grease) barrier placed such that a high-resistance seal was formed between the two compartments. Oxygenated ACSF was perfused through the two compartments separately at 2 ml/min for at least 1 hr. […] The DC potential between the two compartments was monitored via Ag/AgCl electrodes. The signal was amplified and analyzed with the aid of McLab software.

C6 glial cells = experiment: Cell viability (MTT) assay, AMPA-induced damage in C6 glial cells; format: cell-based
Experimental: (§1) MTT assay is a method to measure mitochondrial redox with calorimeter and it is primarily used to know mitochondrial redox potential or cell viability (Mosmann T., J Immunol. Methods, 1983). PC 12 cells and C6 glial cells were grown in DMEM media with 10% fetal calf serum in 5% humidified CO2 atmosphere at 37° C. PC12 cells were induced to differentiation into neuronal cells by the addition of nerve growth factor (100 ng/ml). Fresh NGF was added every 48 h and experiments were conducted after NGF treatment for 7 days.
(§2) The cells were plated in 96 well plates at a density of 1×10^5 cells/well. Cells were preincubated with AMPA (40 μM) and followed by the addition of AR fractions (10 μg/ml) for 24 hrs. MTT reagent (Sigma, USA) (5 mg/ml) was made in PBS (phosphate buffered saline) and filtered. The cells were then treated with MTT (final concentration, 0.5 mg/ml) and allowed to incubate for 3 hrs at 37° C. Cells containing active mitochondria form dark blue formazan by disintegrating tetrazolium ring. The culture media were removed and the cells were subjected to lysis in the presence of […] of DMSO and […] of Sorensen glycine buffer (0.1M glycine, 0.1M NaCl, pH 10.5). The absorbance was measured with spectrophotometer at 570 nm. The ratio of absorbance of experimental groups to control groups is expressed as % cell viability.

[2] = system: differentiated PC12 cells; experiment: Cell viability (MTT) assay, AMPA-induced damage in differentiated PC12 cells; format: cell-based; conditions: AMPA 40 uM
Experimental: as §1, §2

## Cc1o[nH]c(=O)c1CC(N)C(=O)O (stereo not drawn) [AMPA]
[1]
  increase in depolarization: up to 0.79 mV
C6 glial cells
  reduction in cell viability as compared to control: approximately 35%
[2]
  reduction in cell viability as compared to control: approximately 50%
